Data set [1] deals with influenza A/Port Chalmers/l/73 (H3N2) virus. The data set can be described thus: Diffusion test (plaque inhibition zone). The class given is cell-based. To be noted: diameter of plaque-free zone, 0.02 ml of 1 mg/ml solution in 6 mm well, infected MDCK cell monolayers; for zone of inhibition at 1000 µg/mL: Influenza A virus, H3N2, read-out: Active Zone. Here is the method: Diffusion Test. 10 mg/ml solutions of the compounds in water were diluted to a concentration of 1 mg/ml with Eagle's minimum essential medium and 0.02 ml introduced into wells 6mm in diameter cut into an agar layer above influenza A/Port Chalmers/l/73 (H3N2) virus infected MDCK cell monolayers. An infection level giving an even distribution of subconfluent plaques was used. The diameters of zones around the wells free from virus induced plaques (inhibition zones) and diameters of zones in which cytotoxicity was apparent are reported.

The test system of data set [2] is influenza A/Port Chalmers/1/73 (H3N2) virus. The data set can be described thus: Plaque reduction assay. The class given is cell-based. The conditions noted are these: MDCK cells; for inhibition at 1.3 µM / inhibition at 4.1 µM / inhibition at 13 µM / inhibition at 41 µM / inhibition at 130 µM / inhibition at 410 µM: Influenza A virus, H3N2, read-out: % Plaque Reduction at Concentration Given. From the text: More accurate quantitation of antiviral activity was achieved by incorporated of concentrations of the test compound varying from 1.3 x 10^-6M to 4.1 x 10^-4M into the agar overlay above the influenza A/Port Chalmers/1/73 (H3N2) virus infected MDCK cell monolayers. The % reduction in the number of virus induced plaques at each compound concentration is given below.
(In a plaque reduction assay, fewer plaques than in the control indicate reduced infectivity or spread.)

The next data set concerns MDCK cell monolayers. To be noted: diameter of zone with apparent cytotoxicity; 0.02 ml of 1 mg/ml solution in 6 mm well.

For the molecule “1-[β-D-(5'-succinyl-2',3'-carbonyl)ribofuranosyl]-3-carbamoyl-1,2,4-triazole amantadine salt [Compound 6]”, the “Active Zone” value in data set [1] was 55 mm. The “% Plaque Reduction at Concentration Given” value in data set [2] (0.13 x 10^-5 M in agar overlay, 1.3 µM) was 44%; in data set [2] (0.41 x 10^-5 M in agar overlay, 4.1 µM), 63%; in data set [2] (1.3 x 10^-5 M in agar overlay, 13 µM), 89%; in data set [2] (4.1 x 10^-5 M in agar overlay, 41 µM), 100%; in data set [2] (13 x 10^-5 M in agar overlay, 130 µM), 100%; in data set [2] (41 x 10^-5 M in agar overlay, 410 µM) it was 100%. Moreover, the “Toxic Zone” value in the data set on MDCK cell monolayers is given as 0 mm.
With `NC(=O)c1ncn([C@@H]2O[C@H](CO)[C@@H](O)[C@H]2O)n1` [Compound 1, 1-β-D-ribofuranosyl-3-carbamoyl-1,2,4-triazole, reference compound], the zone of inhibition at 1000 µg/mL in data set [1] came out at 28 mm. Besides, the inhibition at 1.3 µM in data set [2] (0.13 x 10^-5 M in agar overlay) was 0%. Further, in data set [2] (0.41 x 10^-5 M in agar overlay), the inhibition at 4.1 µM turned out to be 43%. For the same molecule, the inhibition at 13 µM in data set [2] (1.3 x 10^-5 M in agar overlay) stood at 94%. Also, the inhibition at 41 µM in data set [2] (4.1 x 10^-5 M in agar overlay) amounted to 100%. Moreover, the inhibition at 130 µM in data set [2] (13 x 10^-5 M in agar overlay) was determined as 100%. In data set [2] (41 x 10^-5 M in agar overlay), the inhibition at 410 µM stood at 100%. For the same molecule, the “Toxic Zone” value with MDCK cell monolayers is 0 mm.
Take `NC(=O)c1ncn([C@@H]2O[C@H](COC(=O)CCC(=O)O)[C@H]3OC(=O)O[C@H]32)n1` [Compound 5, 1-[β-D-(5'-succinyl-2',3'-carbonyl)ribofuranosyl]-3-carbamoyl-1,2,4,-triazole]: in data set [1], the zone of inhibition at 1000 µg/mL was found to be 17 mm. The inhibition at 1.3 µM in data set [2] (0.13 x 10^-5 M in agar overlay) came to 0%. In data set [2] (0.41 x 10^-5 M in agar overlay), the inhibition at 4.1 µM amounted to 0%. Further, in data set [2] (1.3 x 10^-5 M in agar overlay), the inhibition at 13 µM came to 0%. Also, in data set [2] (4.1 x 10^-5 M in agar overlay), the inhibition at 41 µM stood at 0%. Also, the inhibition at 130 µM in data set [2] (13 x 10^-5 M in agar overlay) was found to be 0%. The inhibition at 410 µM in data set [2] (41 x 10^-5 M in agar overlay) was 0%. Moreover, the “Toxic Zone” value with MDCK cell monolayers came to 0 mm.

(Values after EP0038629A1, “Virazole derivatives, process for their preparation and use as antiviral agents” (priority 1980, dated 1981).)
